Read-outs that look alike come from different tables or passages of the source.
Key:
[1] = rcm bond, 16-membered ring, DCM, 50.0 °C
Cathepsin L = Cathepsin L (Homo sapiens (Human), UniProt P07711); assay: Cathepsin enzyme inhibition assay (fluorogenic peptide substrate Z-Val-Val-Arg-AMC); format: biochemical; details: enzyme 1 nM, substrate 20 μM, pH 6.5
Procedure: Enzyme activity is measured by observing the increase in fluorescence intensity caused by cleavage of a peptide substrate containing a fluorophore whose emission is quenched in the intact peptide.
Assay buffer: 100 mM potassium phosphate pH 6.5, EDTA-Na 5 mM, Triton X-100 0.001%, DDT 5 mM.
Enzymes (all at 1 nM): human and mouse Cathepsin S, Cat K, Cat B, Cat L
Substrate (20 μM): Z-Val-Val-Arg-AMC, except for Cat K which uses Z-Leu-Arg-AMC (both from Bachem).
AMC=7-Amino-4-Methyl-Coumarin.
Excitation 360 nm, Emission 465 nm.
Enzyme is added to the substance dilutions in 96-well microtitre plates and the reaction is started with substrate. […] IC50 are calculated by standard methods. The results are expressed in μM in the following table.

[2] = from C=CCOc1ccc(C[C@H](NC(=O)c2ccccc2OCC=C)C(=O)NC2(C#N)CC2)cc1; rcm bond; 16-membered ring; Grubbs II (0.3 eq); DCM; 2.88 mM; 50.0 °C

Sequence of Cathepsin L (P07711 114-333): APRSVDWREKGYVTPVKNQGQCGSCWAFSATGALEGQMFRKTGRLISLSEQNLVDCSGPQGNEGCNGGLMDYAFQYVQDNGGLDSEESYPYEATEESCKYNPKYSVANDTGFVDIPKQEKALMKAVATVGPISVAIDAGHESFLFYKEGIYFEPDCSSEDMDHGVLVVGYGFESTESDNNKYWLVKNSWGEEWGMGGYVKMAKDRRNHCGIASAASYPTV

`COc1ccc2c(c1)CC/C=C/COc1ccc(cc1Cl)C[C@@H](C(=O)NC1(C#N)CC1)NC2=O` [Example 18, (E)-(S)-19-Chloro-9-methoxy-5-oxo-17-oxa-4-aza-tricyclo[16.2.2.0*6,11*]docosa-1(21),6,8,10,14,18(22),19-heptaene-3-carboxylic acid (1-cyano-cyclopropyl)-amide] showed a ring closure, isolated yield ([1]; Grubbs II) of 48% and an IC50 (Cathepsin L) of 0.0547 µM.

Work on `N#CC1(NC(=O)[C@@H]2Cc3ccc(cc3)OC/C=C/COc3ccccc3C(=O)N2)CC1` [Example 1, (E)-(S)-5-Oxo-12,17-dioxa-4-aza-tricyclo[16.2.2.0*6,11*]docosa-1(21),6(11),7,9,14,18(22),19-heptaene-3-carboxylic acid (1-cyano-cyclopropyl)-amide] yielded an IC50 (Cathepsin L) of 0.0885 µM and a ring closure, yield after HPLC [2] of 20%.

Work on `Cc1ccc2c(n1)SC/C=C/COc1ccc(cc1Cl)C[C@@H](C(=O)NC1(C#N)CC1)NC2=O` [Example 19, (E)-(S)-19-Chloro-9-methyl-5-oxo-17-oxa-12-thia-4,10-diaza-tricyclo[16.2.2.0*6,11*]docosa-1(21),6,8,10,14,18(22),19-heptaene-3-carboxylic acid (1-cyano-cyclopropyl)-amide] yielded a ring closure, isolated yield ([1]; from C=CCOc1ccc(C[C@H](NC(=O)c2ccc(C)nc2SCC=C)C(=O)NC2(C#N)CC2)cc1Cl, Grubbs II (0.3 eq)/Ti(OiPr)4 (0.6 eq), 1.15 mM) of 6% and an IC50 (Cathepsin L) of 0.026 µM.

From patent US9290467B2, “Cyclic amides” (Hoffmann-La Roche Inc., priority 2012, dated 2016)
